The values below come from patent publication US20230293500A1, “AK3287 PREPARATION, AND PREPARATION METHOD THEREFOR AND APPLICATION THEREOF” (SUZHOU ARK BIOPHARMACEUTICAL CO., LTD., priority 2020, published 2023).

A short description of this data set: PK analysis of AK3287 in plasma and skin by LC/MS after application on wound. Type of data set: in vivo, Duroc pig. The procedure:
According to Table 4, 1 ml of the AK3287 emulsion or vehicle was administered to each of the wounds and smeared evenly on the wounds. The above administration treatment was carried out once daily. The time points for administration were set to start on Day 3 and end on Day 21.
3. Sample and analysis of PK test:
On Day 4, Day 9, Day 15, and Day 21 (i.e., on Day 1, Day 6, Day 12, and Day 18 after the first administration), a piece of circular skin was obtained by surgical incision with a skin biopsy punch (10 mm), after the animal was anesthetized and before the drug was smeared. Blood was sampled from the jugular vein and prepared as plasma. A total of 48 skin samples and 48 plasma samples were collected and subjected to PK analysis by LC/MS method.

On to `Cn1cc(-c2cn(-c3ccc(OC(F)(F)F)cc3)c(=O)c3ncn(C)c23)cn1` [AK3287], for which the “amount of AK3287 entering the blood (plasma PK)” value (plasma, application of emulsion on wound, FIG. 2) is listed as “a small amount of AK3287 could enter the blood”. Besides, under “skin, 0.5%, 2% and 8% emulsion groups, FIG. 3”, the “exposure in the skin, by dose group” value is “higher in the high-dose group”. Further, where the note is “skin, application of emulsion on wound, FIG. 3”, the “distribution of AK3287 in skin tissues (skin PK)” value is on record as “a majority of AK3287 remained in the skin tissues”.
